Laboratory results reported in ChEMBL document CHEMBL5291721, “A preclinical secondary pharmacology resource illuminates target-adverse drug reaction associations of marketed drugs” (Nat Commun, 2023).

Tests used:
[1] = biological target: T1, Alpha-2B adrenergic receptor (Homo sapiens, UniProt P18089)
T1 sequence (P18089 whole entry): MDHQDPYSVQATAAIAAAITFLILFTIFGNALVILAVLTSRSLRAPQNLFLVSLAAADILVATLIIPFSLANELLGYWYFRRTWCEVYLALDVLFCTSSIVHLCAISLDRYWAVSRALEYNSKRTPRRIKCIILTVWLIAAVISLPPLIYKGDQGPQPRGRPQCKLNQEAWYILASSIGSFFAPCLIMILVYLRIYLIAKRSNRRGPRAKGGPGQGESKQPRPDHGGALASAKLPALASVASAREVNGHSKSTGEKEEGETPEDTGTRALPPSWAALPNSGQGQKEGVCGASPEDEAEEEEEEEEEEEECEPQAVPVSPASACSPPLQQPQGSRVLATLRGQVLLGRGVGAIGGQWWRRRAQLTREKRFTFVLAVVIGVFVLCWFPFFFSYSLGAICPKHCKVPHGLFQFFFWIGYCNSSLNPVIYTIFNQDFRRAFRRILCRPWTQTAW

D(1A) dopamine receptor = D(1A) dopamine receptor (Homo sapiens, UniProt P21728)
Sequence of D(1A) dopamine receptor (P21728 whole entry): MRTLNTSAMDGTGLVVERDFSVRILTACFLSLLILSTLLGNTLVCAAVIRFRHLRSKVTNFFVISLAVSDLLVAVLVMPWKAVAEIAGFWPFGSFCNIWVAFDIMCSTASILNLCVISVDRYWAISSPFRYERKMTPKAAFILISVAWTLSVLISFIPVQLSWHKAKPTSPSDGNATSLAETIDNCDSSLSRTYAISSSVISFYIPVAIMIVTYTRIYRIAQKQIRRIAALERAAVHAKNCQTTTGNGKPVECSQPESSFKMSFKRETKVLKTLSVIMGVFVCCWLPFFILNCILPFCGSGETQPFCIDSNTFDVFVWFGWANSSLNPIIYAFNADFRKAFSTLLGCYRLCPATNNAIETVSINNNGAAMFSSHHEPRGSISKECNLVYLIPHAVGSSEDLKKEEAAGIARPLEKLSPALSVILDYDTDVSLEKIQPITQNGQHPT

[2] = biological target: Gamma-aminobutyric acid receptor subunit alpha-1/alpha-2/beta-2/gamma-2 (Homo sapiens, UniProt P14867+P18507+P47869+P47870); assay type: functional, cell-based
Sequence of Gamma-aminobutyric acid receptor subunit alpha-1/alpha-2/beta-2/gamma-2 (P14867 whole entry): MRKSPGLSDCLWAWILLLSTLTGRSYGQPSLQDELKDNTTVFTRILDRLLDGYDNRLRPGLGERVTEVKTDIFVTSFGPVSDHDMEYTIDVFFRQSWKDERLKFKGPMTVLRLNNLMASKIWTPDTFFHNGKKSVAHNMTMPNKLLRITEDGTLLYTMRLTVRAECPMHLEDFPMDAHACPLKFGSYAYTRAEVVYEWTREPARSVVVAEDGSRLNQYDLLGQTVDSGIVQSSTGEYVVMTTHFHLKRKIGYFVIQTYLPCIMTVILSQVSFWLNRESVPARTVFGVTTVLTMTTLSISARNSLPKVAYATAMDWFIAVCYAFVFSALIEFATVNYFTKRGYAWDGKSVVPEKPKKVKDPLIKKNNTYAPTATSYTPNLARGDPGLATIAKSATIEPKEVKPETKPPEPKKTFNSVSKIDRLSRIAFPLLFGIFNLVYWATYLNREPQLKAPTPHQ
Sequence of Gamma-aminobutyric acid receptor subunit alpha-1/alpha-2/beta-2/gamma-2 (P47870 whole entry): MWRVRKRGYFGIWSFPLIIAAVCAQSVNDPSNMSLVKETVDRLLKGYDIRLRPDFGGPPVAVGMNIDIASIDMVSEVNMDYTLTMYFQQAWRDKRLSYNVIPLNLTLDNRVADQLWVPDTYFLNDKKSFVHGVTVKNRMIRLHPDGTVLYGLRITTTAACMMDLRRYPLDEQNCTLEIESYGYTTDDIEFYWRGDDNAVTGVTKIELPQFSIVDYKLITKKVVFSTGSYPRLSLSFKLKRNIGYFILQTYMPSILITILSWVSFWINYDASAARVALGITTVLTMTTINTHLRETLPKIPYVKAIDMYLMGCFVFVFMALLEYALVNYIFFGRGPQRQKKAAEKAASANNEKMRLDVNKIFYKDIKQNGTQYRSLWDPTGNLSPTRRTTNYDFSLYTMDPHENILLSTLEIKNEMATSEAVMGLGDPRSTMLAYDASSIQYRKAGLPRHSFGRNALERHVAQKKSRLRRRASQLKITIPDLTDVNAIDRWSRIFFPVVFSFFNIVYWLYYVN
Sequence of Gamma-aminobutyric acid receptor subunit alpha-1/alpha-2/beta-2/gamma-2 (P18507 whole entry): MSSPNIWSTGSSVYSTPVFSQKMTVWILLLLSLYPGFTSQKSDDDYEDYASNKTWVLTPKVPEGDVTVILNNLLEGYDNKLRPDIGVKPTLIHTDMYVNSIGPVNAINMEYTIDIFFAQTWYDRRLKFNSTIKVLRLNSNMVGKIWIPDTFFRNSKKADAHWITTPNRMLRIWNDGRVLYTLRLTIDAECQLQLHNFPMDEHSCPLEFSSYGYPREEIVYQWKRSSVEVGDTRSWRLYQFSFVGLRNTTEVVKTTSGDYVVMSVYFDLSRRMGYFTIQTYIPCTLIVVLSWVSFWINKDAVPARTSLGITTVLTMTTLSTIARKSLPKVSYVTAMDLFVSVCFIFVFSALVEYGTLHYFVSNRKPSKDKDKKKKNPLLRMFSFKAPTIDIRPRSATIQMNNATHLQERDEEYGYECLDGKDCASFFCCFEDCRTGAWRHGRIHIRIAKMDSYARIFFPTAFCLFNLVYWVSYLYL
Sequence of Gamma-aminobutyric acid receptor subunit alpha-1/alpha-2/beta-2/gamma-2 (P47869 whole entry): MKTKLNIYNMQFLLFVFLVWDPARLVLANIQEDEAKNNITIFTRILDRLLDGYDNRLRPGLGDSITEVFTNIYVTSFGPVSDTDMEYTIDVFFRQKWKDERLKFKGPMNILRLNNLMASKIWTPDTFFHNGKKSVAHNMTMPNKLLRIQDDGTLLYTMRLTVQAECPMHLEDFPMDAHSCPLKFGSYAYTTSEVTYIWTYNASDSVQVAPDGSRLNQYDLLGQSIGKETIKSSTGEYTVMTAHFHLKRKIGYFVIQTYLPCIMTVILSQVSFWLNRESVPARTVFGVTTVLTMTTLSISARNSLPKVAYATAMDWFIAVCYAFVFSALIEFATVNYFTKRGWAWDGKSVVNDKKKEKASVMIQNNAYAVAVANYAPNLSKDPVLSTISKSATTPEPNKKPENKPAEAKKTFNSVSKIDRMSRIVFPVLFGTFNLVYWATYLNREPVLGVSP

[3] = biological target: T2, Alpha-2A adrenergic receptor (Homo sapiens, UniProt P08913)
T2 sequence (P08913 whole entry): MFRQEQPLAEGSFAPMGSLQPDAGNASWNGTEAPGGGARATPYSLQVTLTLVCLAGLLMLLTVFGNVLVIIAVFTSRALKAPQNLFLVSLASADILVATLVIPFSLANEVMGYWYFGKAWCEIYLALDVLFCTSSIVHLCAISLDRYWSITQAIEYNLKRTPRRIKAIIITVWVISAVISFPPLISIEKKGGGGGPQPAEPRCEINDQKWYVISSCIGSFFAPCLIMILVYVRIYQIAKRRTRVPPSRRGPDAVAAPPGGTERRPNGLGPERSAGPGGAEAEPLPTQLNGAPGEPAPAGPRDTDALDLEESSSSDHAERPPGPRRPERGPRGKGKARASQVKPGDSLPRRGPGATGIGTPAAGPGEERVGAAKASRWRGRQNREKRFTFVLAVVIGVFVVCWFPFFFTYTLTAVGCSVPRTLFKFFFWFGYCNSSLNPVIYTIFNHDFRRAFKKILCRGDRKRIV

[4] = biological target: T3, 5-hydroxytryptamine receptor 1A (Homo sapiens, UniProt P08908)
T3 sequence (P08908 whole entry): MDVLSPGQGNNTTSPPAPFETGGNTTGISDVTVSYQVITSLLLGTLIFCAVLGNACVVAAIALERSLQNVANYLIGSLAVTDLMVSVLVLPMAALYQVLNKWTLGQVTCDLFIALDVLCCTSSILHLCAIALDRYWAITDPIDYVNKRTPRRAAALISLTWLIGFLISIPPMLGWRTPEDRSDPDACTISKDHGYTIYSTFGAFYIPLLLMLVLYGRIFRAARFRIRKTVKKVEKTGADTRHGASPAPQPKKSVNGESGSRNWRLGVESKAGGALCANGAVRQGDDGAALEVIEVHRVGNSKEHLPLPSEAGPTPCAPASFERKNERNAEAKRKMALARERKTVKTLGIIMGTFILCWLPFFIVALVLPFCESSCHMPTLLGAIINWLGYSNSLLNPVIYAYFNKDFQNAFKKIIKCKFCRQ

[5] = biological target: T4, Peroxisome proliferator-activated receptor gamma (Homo sapiens, UniProt P37231); assay type: functional
T4 sequence (P37231 whole entry): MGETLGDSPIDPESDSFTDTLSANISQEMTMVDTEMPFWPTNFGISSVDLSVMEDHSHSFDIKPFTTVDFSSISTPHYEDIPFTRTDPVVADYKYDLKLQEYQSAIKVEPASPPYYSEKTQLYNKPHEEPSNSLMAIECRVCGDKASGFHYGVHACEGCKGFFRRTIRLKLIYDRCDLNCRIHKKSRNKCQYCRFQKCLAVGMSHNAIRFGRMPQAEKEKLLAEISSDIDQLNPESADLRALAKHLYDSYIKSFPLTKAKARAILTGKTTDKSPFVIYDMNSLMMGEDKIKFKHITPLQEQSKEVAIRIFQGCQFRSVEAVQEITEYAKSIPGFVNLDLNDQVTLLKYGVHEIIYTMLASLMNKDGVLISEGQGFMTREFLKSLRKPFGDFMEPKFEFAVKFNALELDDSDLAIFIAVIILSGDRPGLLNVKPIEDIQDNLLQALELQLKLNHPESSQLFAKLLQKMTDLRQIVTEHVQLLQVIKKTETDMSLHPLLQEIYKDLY

[6] = biological target: T5, Gastric inhibitory polypeptide receptor (Homo sapiens, UniProt P48546)
T5 sequence (P48546 whole entry): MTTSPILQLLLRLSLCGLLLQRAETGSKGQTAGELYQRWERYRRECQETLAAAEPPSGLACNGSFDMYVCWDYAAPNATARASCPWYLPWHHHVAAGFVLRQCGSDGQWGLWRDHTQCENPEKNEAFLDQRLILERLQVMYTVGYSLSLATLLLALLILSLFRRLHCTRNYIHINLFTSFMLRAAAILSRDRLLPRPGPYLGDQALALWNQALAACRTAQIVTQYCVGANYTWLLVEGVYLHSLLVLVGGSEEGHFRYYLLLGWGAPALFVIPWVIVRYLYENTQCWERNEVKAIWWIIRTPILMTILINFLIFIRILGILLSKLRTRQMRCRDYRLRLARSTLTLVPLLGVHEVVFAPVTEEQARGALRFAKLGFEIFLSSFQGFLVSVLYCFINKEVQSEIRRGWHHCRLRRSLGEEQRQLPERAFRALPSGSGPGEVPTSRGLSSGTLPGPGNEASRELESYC

[7] = biological target: Beta-3 adrenergic receptor (Homo sapiens, UniProt P13945)
Sequence of Beta-3 adrenergic receptor (P13945 whole entry): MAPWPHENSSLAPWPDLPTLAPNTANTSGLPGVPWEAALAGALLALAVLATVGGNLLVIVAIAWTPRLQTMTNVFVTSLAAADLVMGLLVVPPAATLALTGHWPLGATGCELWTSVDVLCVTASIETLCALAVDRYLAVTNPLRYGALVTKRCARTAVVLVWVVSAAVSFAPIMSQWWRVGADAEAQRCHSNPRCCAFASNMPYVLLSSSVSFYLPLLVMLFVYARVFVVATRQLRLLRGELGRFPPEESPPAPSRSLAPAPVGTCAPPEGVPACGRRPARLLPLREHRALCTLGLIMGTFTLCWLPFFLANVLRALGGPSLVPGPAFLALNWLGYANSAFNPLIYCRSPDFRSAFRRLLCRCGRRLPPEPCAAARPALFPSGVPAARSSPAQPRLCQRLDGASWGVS

Mu-type opioid receptor = Mu-type opioid receptor (Homo sapiens, UniProt P35372); experiment: biochemical; assay type: functional
Sequence of Mu-type opioid receptor (P35372 whole entry): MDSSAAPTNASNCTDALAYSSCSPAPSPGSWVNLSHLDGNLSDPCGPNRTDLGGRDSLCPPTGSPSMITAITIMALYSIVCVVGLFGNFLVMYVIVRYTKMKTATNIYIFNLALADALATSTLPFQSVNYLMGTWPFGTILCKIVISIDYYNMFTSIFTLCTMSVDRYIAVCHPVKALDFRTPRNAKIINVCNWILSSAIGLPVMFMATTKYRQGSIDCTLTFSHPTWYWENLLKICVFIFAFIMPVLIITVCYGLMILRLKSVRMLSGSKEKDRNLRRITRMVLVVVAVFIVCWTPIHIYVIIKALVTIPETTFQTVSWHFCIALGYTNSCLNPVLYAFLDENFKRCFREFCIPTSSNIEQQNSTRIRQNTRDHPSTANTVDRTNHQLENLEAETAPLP

Glucagon receptor = Glucagon receptor (Homo sapiens, UniProt P47871)
Sequence of Glucagon receptor (P47871 whole entry): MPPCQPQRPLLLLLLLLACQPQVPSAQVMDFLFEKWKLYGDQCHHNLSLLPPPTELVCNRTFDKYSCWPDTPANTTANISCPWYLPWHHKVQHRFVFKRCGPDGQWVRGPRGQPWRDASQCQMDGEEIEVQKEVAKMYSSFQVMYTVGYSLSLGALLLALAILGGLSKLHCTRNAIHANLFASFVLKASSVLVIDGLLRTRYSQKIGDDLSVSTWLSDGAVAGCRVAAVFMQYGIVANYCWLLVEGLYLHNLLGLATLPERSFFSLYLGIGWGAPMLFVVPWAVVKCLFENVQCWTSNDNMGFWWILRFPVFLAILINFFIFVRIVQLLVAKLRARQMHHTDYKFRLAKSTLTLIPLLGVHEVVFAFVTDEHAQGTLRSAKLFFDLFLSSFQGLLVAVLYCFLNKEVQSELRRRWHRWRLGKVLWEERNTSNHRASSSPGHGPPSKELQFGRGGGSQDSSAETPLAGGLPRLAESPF
Note: assay procedure not described here.

| AC50 (D(1A) dopamine receptor) | AC50 [4] | Compound | AC50 [1] | AC50 [2] | AC50 [3] | AC50 [5] | AC50 [6] | AC50 [7] | AC50 (Mu-type opioid receptor) | AC50 (Glucagon receptor) |
| --- | --- | --- | --- | --- | --- | --- | --- | --- | --- | --- |
| > 10 µM | > 10 µM | N[C@@H](CC(=O)N1CCn2c(nnc2C(F)(F)F)C1)Cc1cc(F)c(F)cc1F [SITAGLIPTIN] | > 30 µM | > 30 µM | > 10 µM | > 30 µM | – | – | – | – |
| – | – | CC(C)c1nc(N(C)S(C)(=O)=O)nc(-c2ccc(F)cc2)c1/C=C/[C@@H](O)C[C@@H](O)CC(=O)O [ROSUVASTATIN] | > 30 µM | > 30 µM | – | > 30 µM | – | – | > 30 µM | – |
| – | – | CCN1CCN(Cc2ccc(Nc3ncc(F)c(-c4cc(F)c5nc(C)n(C(C)C)c5c4)n3)nc2)CC1 [ABEMACICLIB] | > 30 µM | > 30 µM | – | > 30 µM | – | – | – | – |
| – | – | COc1cc2nccc(Oc3ccc(NC(=O)C4(C(=O)Nc5ccc(F)cc5)CC4)cc3)c2cc1OC [CABOZANTINIB] | > 30 µM | > 30 µM | – | > 30 µM | – | – | – | – |
| – | – | OC[C@H]1O[C@@](CO)(O[C@H]2O[C@H](CO)[C@@H](O)[C@H](O)[C@H]2O)[C@@H](O)[C@@H]1O [SUCROSE] | > 30 µM | > 30 µM | – | > 30 µM | – | – | > 30 µM | – |
| > 10 µM | > 10 µM | C[C@@H](Oc1cc(-c2cnn(C3CCNCC3)c2)cnc1N)c1c(Cl)ccc(F)c1Cl [CRIZOTINIB] | > 30 µM | > 30 µM | – | > 30 µM | – | 14.2 µM | – | > 30 µM |

| Compound | AC50 (D(1A) dopamine receptor) | AC50 [4] | AC50 [1] | AC50 [2] | AC50 [3] | AC50 [5] | AC50 [6] | AC50 [7] | AC50 (Mu-type opioid receptor) | AC50 (Glucagon receptor) |
| --- | --- | --- | --- | --- | --- | --- | --- | --- | --- | --- |
| C=CC[C@@H]1/C=C(\C)C[C@H](C)C[C@H](OC)[C@H]2O[C@@](O)(C(=O)C(=O)N3CCCC[C@H]3C(=O)O[C@H](/C(C)=C/[C@@H]3CC[C@@H](O)[C@H](OC)C3)[C@H](C)[C@@H](O)CC1=O)[C@H](C)C[C@@H]2OC [TACROLIMUS ANHYDROUS] | > 10 µM | > 10 µM | – | > 30 µM | > 10 µM | > 30 µM | > 30 µM | 12.2 µM | > 30 µM | > 30 µM |
